This passage reports inhibition, Activity and IC50 results from ChEMBL document CHEMBL2062445, “Synthesis and nicotinic receptor activity of chemical space analogues of N-(3R)-1-azabicyclo[2.2.2]oct-3-yl-4-chlorobenzamide (PNU-282,987) and 1,4-diazabicyclo[3.2.2]nonane-4-carboxylic acid 4-bromophenyl ester (SSR180711)” (J Med Chem, 2012).

pIC50: −log10 of the molar value. The source made the active and inactive calls. The calls are words filed in the database; no cut-off is given here.

Assay [1] concerns the target T1, Neuronal acetylcholine receptor subunit alpha-7 (Homo sapiens, UniProt P36544). Kind of assay: Antagonist activity at human alpha7 nAChR expressed in Xenopus oocyte assessed as inhibition of ACh-induced current at 10 uM after 30 secs by electrophysiological assay. Format: functional.
For assay [2], the target named is T1, Neuronal acetylcholine receptor subunit alpha-7. Kind of assay: Agonist activity at human alpha7 nAChR expressed in Xenopus oocyte assessed as stimulation of ACh-induced current at 10 uM after 30 secs by electrophysiological assay. The format is functional.
Assay [3] has the same target. Kind of assay: Antagonist activity at human alpha7 nAChR expressed in Xenopus oocyte assessed as inhibition of ACh-induced current after 30 secs by electrophysiological assay. The format is functional.
Assay [4] deals with T2, Neuronal acetylcholine receptor; alpha3/beta2 (Homo sapiens) (UniProt P17787+P32297). In words: Positive allosteric modulation at human recombinant alpha3beta 2 nAChR expressed in Xenopus oocyte assessed as stimulation of ACh-induced current at 10 uM after 30 secs by electrophysiological assay.
The target in assay [5] is T2, Neuronal acetylcholine receptor; alpha3/beta2 (Homo sapiens). In words: Negative allosteric modulation at human recombinant alpha3beta 2 nAChR expressed in Xenopus oocyte assessed as inhibition of ACh-induced current at 100 uM after 30 secs by electrophysiological assay.
For assay [6], the target named is T1, Neuronal acetylcholine receptor subunit alpha-7. Kind of assay: Partial agonist activity at human alpha7 nAChR expressed in Xenopus oocyte assessed as stimulation of ACh-induced current after 30 secs by electrophysiological assay. The format is functional.

T1 sequence (P36544 whole entry): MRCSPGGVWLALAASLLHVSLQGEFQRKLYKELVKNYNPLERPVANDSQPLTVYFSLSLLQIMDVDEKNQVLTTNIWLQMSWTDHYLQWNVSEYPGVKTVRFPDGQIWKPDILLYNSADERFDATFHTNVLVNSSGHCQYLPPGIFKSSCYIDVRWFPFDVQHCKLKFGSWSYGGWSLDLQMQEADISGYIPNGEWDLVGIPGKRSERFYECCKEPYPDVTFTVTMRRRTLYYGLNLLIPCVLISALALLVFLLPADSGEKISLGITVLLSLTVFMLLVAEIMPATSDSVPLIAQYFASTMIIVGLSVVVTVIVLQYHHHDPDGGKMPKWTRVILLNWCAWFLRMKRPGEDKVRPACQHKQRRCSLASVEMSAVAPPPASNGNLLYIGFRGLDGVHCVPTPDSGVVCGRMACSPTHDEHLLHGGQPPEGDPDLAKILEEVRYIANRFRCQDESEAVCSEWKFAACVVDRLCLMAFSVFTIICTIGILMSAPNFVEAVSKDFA

As for `O=C(NCC1=CC2CCN1CC2)c1ccc(Cl)cc1`, in assay [1], the inhibition (commonly the relative decrease from the control value, in per cent) is 50%. Moreover, the outcome in assay [2] was inactive.

Turning to `O=C(NCC1CC2CCN1CC2)c1ccc2c(c1)OCCO2` (racemic), the inhibition in assay [1] was found to be 79%.

In the case of `CN1CC2CCC1C(CNC(=O)c1ccc3c(c1)OCCO3)C2` (racemic; form 2), the inhibition in assay [1] was 77%. The outcome in assay [2] was inactive.

On to `CN(C)CCNC(=O)C1COc2ccccc2O1` (stereo not given), for which the inhibition in assay [1] worked out at 52%.

With `CN1CC2CCC1C(CNC(=O)c1ccc(Cl)cc1)C2` (racemic; form 2), the inhibition in assay [1] is 61%. Further, in assay [2], the result was inactive. In the case of `CC(C)N1CCN(C(=O)c2ccc3ncsc3c2)CC1`, the inhibition in assay [1] was 85%. Turning to `CCCN1CCC[C@@H]1CNC(=O)c1ccc(F)cc1`, the inhibition in assay [1] worked out at 22%. Besides, in assay [2], the outcome was inactive. Take `CC1CCCC1N1CCC(NC(=O)c2ccc3ncsc3c2)CC1` (stereo not given): the inhibition in assay [1] was determined as 65%. The outcome in assay [2] was inactive. The matching figures for `CCN1CCC[C@@H]1CNC(=O)c1ccc(Cl)cc1`: 42% and “inactive”.

With `O=C(N[C@H]1CCN(Cc2ccccc2)C1)c1ccc2ncsc2c1`, the inhibition in assay [1] worked out at 94%. Moreover, in assay [2], the result was inactive.

As for `C[C@H]1CN2CCCC[C@@H]2CN1C(=O)c1ccc(Cl)cc1`, in assay [1], the inhibition is 65%. Same read-out and setting: the result for `O=C(NCC12CCCN1CCC2)c1ccccc1Cl` reads 35%; that for `O=C(Oc1ccc(Br)cc1)N1CCCN2CCC[C@H]2C1`, 62%; that for `O=C(c1ccc(Cl)cc1)N1CCCN2CCC[C@H]2C1`, 57%. `CN1CC2CCC1C(CNC(=O)c1ccc(Cl)cc1)C2` (racemic; form 1): the inhibition in assay [1] came to 60%. On to `CCC#CCN1CCC[C@@H]1CNC(=O)c1ccc2ncsc2c1`, for which, in assay [1], the inhibition was found to be 13%. In assay [3], the pIC50 (commonly −log10 of the IC50, conventionally taken in molar units) was 4.40. With `CN1CC2CCC1C(CNC(=O)c1ccc(Br)cc1)C2` (racemic; form 1), in assay [1], the inhibition was 71%. Regarding `O=C(c1ccccc1)N1CCCN2CCC[C@@H]2C1`, in assay [1], the inhibition turned out to be 55%. In assay [2], the result was inactive. As to `O=C(c1ccc2ncsc2c1)N1CCCN2CCC[C@H]2C1`, the inhibition in assay [1] stood at 53%. The same measure, in the same setting: the result for `CC(C)N1CCCCN(C(=O)c2ccc3ncsc3c2)CC1` reads 40%; that for `CCC#CCN1CCC[C@@H]1CNC(=O)c1ccc(Cl)cc1`, 21%. In the case of `O=C(N[C@H]1CCN(C2CCCCC2)C1)c1ccc2ncsc2c1`, the inhibition in assay [1] is 56%. In addition, in assay [2], the result was inactive.

Take `CCC#CCN1CCC[C@H]1COC(=O)c1ccc2ncsc2c1`: the inhibition in assay [1] came to 60%. For the same molecule, the result in assay [2] was inactive. As for `CC(C)N1CCN(C(=O)c2ccc(Cl)cc2)CC1`, the inhibition in assay [1] is 84%. Still for that read-out and setting: the result for `CN(C)CCNC(=O)c1ccc2ncsc2c1` reads 94%. For the molecule `CCN1CCC[C@@H]1CNC(=O)c1ccc2ncsc2c1`, in assay [1], the inhibition came to 53%. Also, in assay [2], the outcome was inactive. Turning to `CC(C)N1CCCCN(C(=O)c2ccc(Cl)cc2)CC1`, the inhibition in assay [1] is 35%. Same read-out and setting: as for `O=C(NCC12CCCN1CCC2)c1cccc(Cl)c1`, the figure is 32%. In the case of `CC(C)N1CCC[C@@H]1CNC(=O)Oc1ccc(Br)cc1`, the inhibition in assay [1] worked out at 27%. For the same molecule, in assay [2], the outcome was inactive. With `Cc1ccc(C(=O)NCC23CCCN2CCC3)cc1`, the inhibition in assay [1] came out at 25%.

Turning to `O=C(NCC1=CC2CCN1CC2)c1ccc(F)cc1`, the inhibition in assay [1] came to 36%. For the same molecule, in assay [2], the result was inactive. Regarding `O=C(NCC1CC2CCN1CC2)Oc1ccc(Br)cc1` (racemic), in assay [1], the inhibition came out at 80%. `CC(C)N1C[C@H]2C[C@@H]1CN2C(=O)c1ccc(Cl)cc1`: the inhibition in assay [1] was 69%. Further, the outcome in assay [2] was inactive. Turning to `O=C(c1ccc(F)cc1)N1CCCN2CCC[C@@H]2C1`, in assay [1], the inhibition turned out to be 58%. The outcome in assay [2] was inactive. With `CN1CCC2CC1CN(C(=O)Oc1ccc(Br)cc1)C2` (racemic), the outcome in assay [4] and in assay [5] was Active. With `C[C@H]1CN2CCCC[C@@H]2CN1C(=O)c1ccc2ncsc2c1` (racemic), the inhibition in assay [1] is 61%. With `O=C(NCC12CCCN1CCC2)c1ccc(Cl)cc1`, in assay [1], the inhibition was found to be 32%. For the same molecule, the outcome in assay [4] and in assay [5] was Active. In the case of `O=C(NCC1=CC2CCN1CC2)c1ccc2c(c1)OCCO2`, the inhibition in assay [1] was 50%. The outcome in assay [2] was inactive. The matching figures for `O=C(Oc1ccc(Br)cc1)N1CCCN2CCC[C@@H]2C1`: 36% and “inactive”. In the case of `O=C(NCC12CCCN1CCC2)c1ccccc1`, the inhibition in assay [1] was 26%. For the same molecule, the outcome in assay [4] and in assay [5] was Active. Consider `CN1CC2CCC1C(CNC(=O)c1ccc(Br)cc1)C2` (racemic; form 2), for which, in assay [1], the inhibition was 66%. The outcome in assay [2] was inactive. As to `CC(C)N1CCCCN(C(=O)C2COc3ccccc3O2)CC1` (stereo not given), in assay [1], the inhibition was 37%. On the same count and under the same terms, the result for `CCC#CCN1CCC[C@@H]1CNC(=O)C1COc2ccccc2O1` (stereo not given in full) reads 74%.

For the molecule `CN1CC2CCC1C(CNC(=O)c1ccccc1)C2` (racemic; form 2), the inhibition in assay [1] came out at 54%. Besides, in assay [2], the result was inactive. For `O=C(NCC12CCCN1CCC2)c1ccc(Br)cc1`, the inhibition in assay [1] turned out to be 9%.

As for `CC(C)N1CCN(C(=O)C2COc3ccccc3O2)CC1` (stereo not given), in assay [1], the inhibition was determined as 90%. Same read-out and setting: as for `CCC#CCN1CCC[C@@H]1CNC(=O)Oc1ccc(Br)cc1`, the figure is 72%. Still for that read-out and setting: the result for `CN1CC2CCC1C(CNC(=O)c1ccccc1)C2` (racemic; form 1) reads 68%. In the case of `CC1CCCC1N1CC[C@H](NC(=O)c2ccc3ncsc3c2)C1` (stereo not given in full), in assay [1], the inhibition was found to be 20%. Further, the pIC50 in assay [3] is 5.30. For `CC(C)N1CCCN(C(=O)c2ccc3c(c2)OCCO3)CC1`, in assay [2], the result was inactive. On to `O=C(NCC1=CC2CCN1CC2)c1ccccc1`, for which the inhibition in assay [1] was 35%. In assay [2], the result was inactive. For `CCN1CC[C@H](NC(=O)c2ccc3ncsc3c2)C1`, the inhibition in assay [1] is 139%. Further, the outcome in assay [2] was inactive. On to `CC(C)N1CCCCN(C(=O)c2ccc3c(c2)OCCO3)CC1`, for which, in assay [1], the inhibition was determined as 25%. Moreover, the pIC50 in assay [3] was 5.16. With `O=C(NCC1=CC2CCN1CC2)Oc1ccc(Br)cc1`, the inhibition in assay [1] is 100%. The outcome in assay [2] was inactive. As for `CN1CC2CCC1C(CNC(=O)c1ccc3c(c1)OCCO3)C2` (racemic; form 1), the inhibition in assay [1] was 81%. As to `O=C(c1ccc(Br)cc1)N1CCCN2CCC[C@@H]2C1`, the inhibition in assay [1] was 40%. In assay [2], the result was inactive. For `O=C(N[C@@H]1CCN(Cc2ccccc2)C1)c1ccc2ncsc2c1`, in assay [1], the inhibition amounted to 59%.

Turning to `CC(C)N1CCN(C(=O)c2ccc3c(c2)OCCO3)CC1`, in assay [1], the inhibition amounted to 81%.

Take `CCCC#CCN1CC[C@H](NC(=O)c2ccc3ncsc3c2)C1`: the inhibition in assay [1] came to 81%. In assay [2], the outcome was inactive.

For `O=C(NCC12CCCN1CCC2)c1ccc2c(c1)OCCO2`, in assay [1], the inhibition worked out at 33%. Same read-out and setting: the result for `O=C(NCC1CC2CCN1CC2)c1ccccc1` (racemic) reads 53%; that for `CN1CC2CCC1C(CNC(=O)c1ccc(F)cc1)C2` (racemic; form 1), 52%.

As to `CCC#CCN1CCC[C@@H]1CNC(=O)c1ccc2c(c1)OCCO2`, the inhibition in assay [1] was 96%. On the same count and under the same terms, the result for `O=C(c1ccc2c(c1)OCCO2)N1CCCN2CCC[C@H]2C1` reads 56%; that for `O=C(NCC12CCCN1CCC2)c1ccc2ncsc2c1`, 34%. With `O=C(NCC12CCCN1CCC2)C1COc2ccccc2O1` (stereo not given), in assay [1], the inhibition is 29%.

As to `CC(C)N1CCN(C(=O)Oc2ccc(Br)cc2)CC1`, the inhibition in assay [1] came to 82%.

As to `CCN1CCC[C@@H]1CNC(=O)Oc1ccc(Br)cc1`, the inhibition in assay [1] worked out at 53%. The result in assay [2] was inactive. Regarding `C[C@H]1CN2CCCC[C@@H]2CN1C(=O)c1ccc2c(c1)OCCO2`, the inhibition in assay [1] was 75%. Same read-out and setting: as for `CN(C)CCNC(=O)c1ccc(Cl)cc1`, the figure is 68%. For the molecule `CN1CC2CCC1C(CNC(=O)c1ccc(F)cc1)C2` (racemic; form 2), the inhibition in assay [1] came to 55%. For the same molecule, in assay [2], the result was inactive. As to `CCC#CCN1CCC[C@H]1CNC(=O)c1ccc2ncsc2c1`, the inhibition in assay [1] came out at 88%. Besides, the result in assay [2] was inactive. In addition, the negative-log IC50 (pIC50) in assay [3] was 4.35. For `O=C(C1COc2ccccc2O1)N1CCCN2CCC[C@H]2C1` (stereo not given in full), the inhibition in assay [1] stood at 54%.

As for `O=C(c1ccc2c(c1)OCCO2)N1CCCN2CCC[C@@H]2C1`, the inhibition in assay [1] came to 40%. Further, in assay [2], the result was inactive.

For the molecule `O=C(NCC1=CC2CCN1CC2)c1ccc(Br)cc1`, in assay [1], the inhibition came out at 30%. The result in assay [2] was inactive. Consider `O=C(Oc1ccc(Br)cc1)N1CCN2CCC1CC2`, for which the result in assay [6] was Active. For the molecule `O=C(NC[C@H]1CCCN1C1CCCCC1)c1ccc2ncsc2c1`, in assay [1], the inhibition is 71%. Also, the result in assay [2] was inactive.

As to `CN(C)CCNC(=O)c1ccc2c(c1)OCCO2`, in assay [1], the inhibition was determined as 87%. In the case of `O=C(N[C@@H]1CCCC[C@H]1N1CCCCC1)Oc1ccc(Br)cc1` (racemic), the inhibition in assay [1] came out at 34%. The negative logarithm of the IC50 (pIC50) in assay [3] was 5.00. With `CC1CCCC1N1CC[C@H](NC(=O)c2ccc(Cl)cc2)C1` (stereo not given in full), in assay [1], the inhibition was determined as 33%.
